Biological target: T1, Human Factor XIIa (hFXIIa) (Homo sapiens, UniProt P00748)
T1 construct: purchased Enzyme Research Laboratories
T1 sequence (P00748 373-615 limits assumed): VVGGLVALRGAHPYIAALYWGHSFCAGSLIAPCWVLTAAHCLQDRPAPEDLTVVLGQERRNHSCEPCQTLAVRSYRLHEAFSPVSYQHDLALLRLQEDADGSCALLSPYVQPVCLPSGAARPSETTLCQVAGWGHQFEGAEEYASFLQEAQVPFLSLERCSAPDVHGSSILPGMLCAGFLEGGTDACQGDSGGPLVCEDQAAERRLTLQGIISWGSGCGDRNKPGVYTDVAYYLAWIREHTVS
T1 sequence (P00748 20-372 partner limits assumed): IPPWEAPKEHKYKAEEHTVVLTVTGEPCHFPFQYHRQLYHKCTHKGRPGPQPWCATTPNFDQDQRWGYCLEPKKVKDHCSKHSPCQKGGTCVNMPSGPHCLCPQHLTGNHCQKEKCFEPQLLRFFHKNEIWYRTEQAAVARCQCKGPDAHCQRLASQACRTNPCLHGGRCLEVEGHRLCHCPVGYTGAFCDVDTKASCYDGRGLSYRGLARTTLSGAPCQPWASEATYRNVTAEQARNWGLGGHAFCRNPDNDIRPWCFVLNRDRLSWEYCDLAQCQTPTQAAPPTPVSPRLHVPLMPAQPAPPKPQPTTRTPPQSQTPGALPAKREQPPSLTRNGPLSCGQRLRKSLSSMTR
Test: Determination of Human Factor XIIa (hFXIIa) inhibition, fluorogenic substrate IC50 assay
Format: biochemical
Conditions: fluorogenic substrate H-DPro-Phe-Arg-AFC at Km, 25° C., read-out: Human FXIIa IC50
Experimental: Determination of Human Factor XIIa (hFXIIa) inhibition
The Km for the cleavage of the substrate by hFXIIa was determined by standard transformation of the Michaelis-Menten equation, with subsequent inhibition assays performed at substrate Km concentration.

| SMILES | IC50 |
| --- | --- |
| CN1CCc2ccc(N3CCc4c(C(=O)NCC5CC5)nn(-c5cncc(Cl)c5)c4C3=O)cc2C1=O [Example 2021, 1-(5-chloropyridin-3-yl)-N-(cyclopropylmethyl)-6-(2-methyl-1-oxo-1,2,3,4-tetrahydroisoquinolin-7-yl)-7-oxo-4,5,6,7-tetrahydro-1H-pyrazolo[3,4-c]pyridine-3-carboxamide] | 3000 to 10000 nM |
| CCN1CCc2cnc(N3CCc4c(C(=O)NCC5CC5)nn(-c5cccc(Cl)c5)c4C3=O)nc2C1 [Example 1056, 1-(3-Chlorophenyl)-N-(cyclopropylmethyl)-6-(7-ethyl-5,6,7,8-tetrahydropyrido[3,4-d]pyrimidin-2-yl)-7] | 300 to 1000 nM |
| O=C(NCc1ccccc1)c1nn(-c2cccc(Cl)c2)c2c1CCN(c1ccc3c(c1)CN(CC1CCCC1)CC3)C2=O [Example 1020, N-benzyl-1-(3-chlorophenyl)-6-(2-(cyclopentylmethyl)-1,2,3,4-tetrahydroisoquinolin-7-yl)-7-oxo-4,5,6,7-tetrahydro-1H-pyrazolo[3,4-c]pyridine-3-carboxamide] | 300 to 1000 nM |
| O=C(NCc1cnccc1Cl)c1nn(-c2cccc(Cl)c2)c2c1CCN(c1cccc(CN3CCCCC3)c1)C2=O [Example 1174, 1-(3-chlorophenyl)-N-((4-chloropyridin-3-yl)methyl)-7-oxo-6-(3-(piperidin-1-ylmethyl)phenyl)-4,5,6,7-tetrahydro-1H-pyrazolo[3,4-c]pyridine-3-carboxamide] | 100 to 300 nM |
| CN1CCc2ccc(N3CCc4c(C(=O)NCC56CC(CO)(CCO5)C6)nn(-c5cccc(Cl)c5)c4C3=O)cc2C1=O [Example 1283, 1-(3-chlorophenyl)-N-((5-(hydroxymethyl)-2-oxabicyclo[3.1.1]heptan-1-yl)methyl)-6-(2-methyl-1-oxo-1,2,3,4-tetrahydroisoquinolin-7-yl)-7-oxo-4,5,6,7-tetrahydro-1H-pyrazolo[3,4-c]pyridine-3-carboxamide] | 300 to 1000 nM |
| O=C(NCC1CC1)c1nn(-c2cccc(Cl)c2)c2c1CCN(c1ccc3c(c1)CN(CC1CCOC1)CC3)C2=O (stereo not shown) [Example 1116, 1-(3-chlorophenyl)-N-(cyclopropylmethyl)-7-oxo-6-(2-((tetrahydrofuran-3-yl)methyl)-1,2,3,4-tetrahydroisoquinolin-7-yl)-4,5,6,7-tetrahydro-1H-pyrazolo[3,4-c]pyridine-3-carboxamide] | 300 to 1000 nM |
| COc1ccc(-n2nc(C(=O)NCc3cnccc3C)c3c2C(=O)N(c2ccc4c(c2)CN(CCO)CC4)CC3)cc1 [Example 2003, 6-(2-(2-hydroxyethyl)-1,2,3,4-tetrahydroisoquinolin-7-yl)-1-(4-methoxyphenyl)-N-((4-methylpyridin-3-yl)methyl)-7-oxo-4,5,6,7-tetrahydro-1H-pyrazolo[3,4-c]pyridine-3-carboxamide] | 300 to 1000 nM |
| CN(C)C(=O)c1csc(N2CCc3c(C(=O)NCC4CC4)nn(-c4cccc(Cl)c4)c3C2=O)c1 [Example 1295, 1-(3-chlorophenyl)-N-(cyclopropylmethyl)-6-(4-(dimethylcarbamoyl)thiophen-2-yl)-7-oxo-4,5,6,7-tetrahydro-1H-pyrazolo[3,4-c]pyridine-3-carboxamide] | 10000 to 40000 nM |
| CCN1CCc2ccc(N3CCc4c(C(=O)NC5C6COCC65)nn(-c5cccc(Cl)c5)c4C3=O)cc2C1 (stereo not shown) [Example 1093, N-(3-oxabicyclo[3.1.0]hexan-6-yl)-1-(3-chlorophenyl)-6-(2-ethyl-1,2,3,4-tetrahydroisoquinolin-7-yl)-7-oxo-4,5,6,7-tetrahydro-1H-pyrazolo[3,4-c]pyridine-3-carboxamide] | 100 to 300 nM |
| CN1CCc2ccc(N3CCc4c(C(=O)NC5CCOC5)nn(-c5cccc(Cl)c5)c4C3=O)cc2C1 (stereo not shown) [Example 1042, 1-(3-chlorophenyl)-6-(2-methyl-1,2,3,4-tetrahydroisoquinolin-7-yl)-7-oxo-N-(tetrahydrofuran-3-yl)-4,5,6,7-tetrahydro-1H-pyrazolo[3,4-c]pyridine-3-carboxamide] | 300 to 1000 nM |

The next lines start with the values.

| IC50 | SMILES |
| --- | --- |
| 100 to 300 nM | O=C(NCC1CC1)c1nn(-c2cccc(Cl)c2)c2c1CCN(c1ccc3c(c1)C(=O)N(CCO)CCO3)C2=O [Example 1289, 1-(3-chlorophenyl)-N-(cyclopropylmethyl)-6-(4-(2-hydroxyethyl)-5-oxo-2,3,4,5-tetrahydrobenzo[f][1,4]oxazepin-7-yl)-7-oxo-4,5,6,7-tetrahydro-1H-pyrazolo[3,4-c]pyridine-3-carboxamide] |
| 3000 to 10000 nM | CCOC(=O)c1nn(-c2cccc(Cl)c2)c2c1CCN(c1cccc(C(=O)N(C)C)c1)C2=O [Example 1196, ethyl 1-(3-chlorophenyl)-6-(3-(dimethylcarbamoyl)phenyl)-7-oxo-4,5,6,7-tetrahydro-1H-pyrazolo[3,4-c]pyridine-3-carboxylate] |
| 300 to 1000 nM | CN1CCc2ccc(N3CCc4c(C(=O)NCC5COC5)nn(-c5cccc(Cl)c5)c4C3=O)cc2C1 [Example 1047, 1-(3-chlorophenyl)-6-(2-methyl-1,2,3,4-tetrahydroisoquinolin-7-yl)-N-(oxetan-3-ylmethyl)-7-oxo-4,5,6,7-tetrahydro-1H-pyrazolo[3,4-c]pyridine-3-carboxamide] |
| 300 to 1000 nM | CN1CCc2ccc(N3CCc4c(C(=O)NC5CCNC(=O)C5)nn(-c5cccc(Cl)c5)c4C3=O)cc2C1 (stereo not shown) [Example 1057, 1-(3-chlorophenyl)-6-(2-methyl-1,2,3,4-tetrahydroisoquinolin-7-yl)-7-oxo-N-(2-oxopiperidin-4-yl)-4,5,6,7-tetrahydro-1H-pyrazolo[3,4-c]pyridine-3-carboxamide] |
| 10000 to 40000 nM | CCOC(=O)c1nn(-c2cccc(Cl)c2)c2c1CCN(c1cccc(N3CC(C(F)(F)F)CC3=O)c1)C2=O (stereo not shown) [Example 1405, ethyl 1-(3-chlorophenyl)-7-oxo-6-(3-(2-oxo-4-(trifluoromethyl)pyrrolidin-1-yl)phenyl)-4,5,6,7-tetrahydro-1H-pyrazolo[3,4-c]pyridine-3-carboxylate] |
| 300 to 1000 nM | C[C@@H](CO)N1CCc2ccc(N3CCc4c(C(=O)NCC5CC5)nn(-c5cccc(Cl)c5)c4C3=O)cc2C1 [Example 1113, (S)-1-(3-chlorophenyl)-N-(cyclopropylmethyl)-6-(2-(1-hydroxypropan-2-yl)-1,2,3,4-tetrahydroisoquinolin-7-yl)-7-oxo-4,5,6,7-tetrahydro-1H-pyrazolo[3,4-c]pyridine-3-carboxamide] |
| 300 to 1000 nM | CN1Cc2ccc(N3CCc4c(C(=O)NCc5ccccc5)nn(-c5cccc(Cl)c5)c4C3=O)cc2C1 [Example 1028, N-benzyl-1-(3-chlorophenyl)-6-(2-methylisoindolin-5-yl)-7-oxo-4,5,6,7-tetrahydro-1H-pyrazolo[3,4-c]pyridine-3-carboxamide] |
| 1000 to 3000 nM | CN1CCc2ccc(N3CCc4c(CO)nn(-c5cccc(Cl)c5)c4C3=O)cc2C1=O [Example 1183, 7-(1-(3-chlorophenyl)-3-(hydroxymethyl)-7-oxo-1,4,5,7-tetrahydro-6H-pyrazolo[3,4-c]pyridin-6-yl)-2-methyl-3,4-dihydroisoquinolin-1(2H)-one] |
| 300 to 1000 nM | CCOC(=O)c1nn(-c2cccc(Cl)c2)c2c1CCN(c1ccc3c(c1)C(=O)N(C)CC3)C2=O [Example 1284, ethyl 1-(3-chlorophenyl)-6-(2-methyl-1-oxo-1,2,3,4-tetrahydroisoquinolin-7-yl)-7-oxo-4,5,6,7-tetrahydro-1H-pyrazolo[3,4-c]pyridine-3-carboxylate] |
